Experimental data reported in US20190282692A1, “SELECTIVE LOCAL INHIBITION OF TNFR1-MEDIATED FUNCTIONS AT THE SITE OF ANTIGEN/ALLERGEN PRESENTATION” (priority 2012, published 2019).
Several values for one entry are separate records, joined by “and”; a condition that tells them apart may be missing. Identical values can stand only once.

Tests used:
[1] = system: IL-4 gene transcription; conditions: read-out: concentration for 50% inhibition of IL-4 gene transcription; cited from earlier work
[2] = system: NF-kappa B translocation; conditions: read-out: concentration for 50% inhibition of NF-kappa B translocation; cited from earlier work
[3] = system: CD4+ T cells purified from human peripheral blood; conditions: cited from earlier work
[4] = system: isolated rat cardiomyocytes; conditions: cited from earlier work; for reproduction of the effects of in vivo NAC treatment (glutathione repletion, unmasking of TNFR2-mediated effects): 50 μmol/L; for protection against deleterious effects of TNF-alpha on contraction: preincubation 2-3 hours, 50 μM GSM or exogenously added NAC, cardiomyocytes from control rats
[5] = cited from earlier work
[6] = cited from earlier work; remark: listed apart in the source
[7] = system: left ventricle; conditions: 3-day NAC treatment 120 mg/kg/day, 2-month post-myocardial infarction rats; cited from earlier work
[8] = system: resting T cells; conditions: resting T cells from seven donors, 3 day period, NAC 1 mM to 20 mM; cited from earlier work
[9] = 8 days, cited from earlier work
[10] = 1800 mg/day oral, one year, added to standard therapy; cited from earlier work
[11] = system: T cells purified from human peripheral blood; conditions: 10 mM NAC, after two passages; cited from earlier work
[12] = system: purified peripheral blood T cells; conditions: 20 mM NAC, Con A 10 μg/ml; cited from earlier work
[13] = system: T cells purified from human peripheral blood; conditions: 20 mM NAC, Con A 2.5 μg/ml, 40 hours; cited from earlier work
[14] = system: purified peripheral blood T cells; conditions: cited from earlier work
[15] = system: purified tonsillar B cells; conditions: 20 mM NAC; cited from earlier work
[16] = system: purified tonsillar B cells; conditions: dose-dependent, significant with 0.5 mM, maximal with 20 mM NAC, 14 days; cited from earlier work
[17] = 600 mg to 1000 mg NAC three times daily orally, 4 weeks; cited from earlier work
[18] = system: TNFR1-mediated activation of NF-kappa B; conditions: cited from earlier work
[19] = system: TNFR2-mediated activation of NF-kappa B; conditions: high concentrations; cited from earlier work
[20] = in vivo; cited from earlier work
[21] = system: allergen-induced airways hyper-responsiveness; conditions: cited from earlier work
[22] = system: late phase asthmatic response to allergen challenge; conditions: cited from earlier work
[23] = system: TNF; assay type: in vivo, human; conditions: for side effects of anti-TNF treatment in the patient: one patient with ankylosing spondylitis; for development of allergen-specific sIgG4 during specific immunotherapy: one vespid venom-allergic patient, SIT 2003-2009
Text: Case report from the Allergy Center of the Technical University of Munich (TUM), Germany. A patient (at the first visit in July 2003) with systemic vespid venom allergy was under anti-TNF therapy with the soluble TNF receptor etanercept (Enbrel®) for ankolysing spondylitis since July 2002 (see FIG. 9). In July/2003, the patient experienced a mild to moderate anaphylactic reaction (grade 1-2 according to Ring and Messmer) with generalized urticaria, subjective breathing problems and dizziness after a wasp sting.
No sIgE was detectable against Ves v 2 and Ves v 3.
Similar results were also obtained in the ELISA analysis, where sIgG4 levels were detectable already in 2003 before SIT mainly against Ves v 1 and Ves v 5, which decreased slightly over time during SIT.
Discussion. […] Even amongst the group of SIT therapy failures/non-responders, we routinely observed an increase of sIgG4 levels to at least one allergen. Thus, this patient was the first and only one ever without any increase in sIgG4 to any of the vespid venom allergens. […] To our knowledge this was the only patient worldwide that received immunotherapy under anti-TNF inhibition treatment. Since there are several lines of evidence that TNFR2-mediated signaling is essential for the induction of tolerance, inhibition of TNFR2 appears to be responsible for the inhibitory effect of anti-TNF-alpha therapy on the efficacy of specific immunotherapy.

[24] = target: T1, TNF-alpha (Mus musculus, UniProt P06804); conditions: without inhibiting Teff activation; cited from earlier work
T1 construct: host or cells: mouse, in vivo
T1 sequence (P06804 80-235 limits assumed): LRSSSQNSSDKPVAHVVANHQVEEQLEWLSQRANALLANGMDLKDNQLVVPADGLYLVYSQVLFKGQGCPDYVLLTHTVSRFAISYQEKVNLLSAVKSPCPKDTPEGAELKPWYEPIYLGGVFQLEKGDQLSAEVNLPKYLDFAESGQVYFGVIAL

[25] = system: C3 convertase; conditions: cited from earlier work

CC(=O)Oc1ccccc1C(=O)O [ASA, acetylsalicylic acid]
IC50 [1]: ~1 mM | IC50 [2]: ~3 mM | inhibition of IL-4 secretion ([3]; 1 mM ASA): 47% | production of IFNγ ([3]; ASA 0.1 mM-3 mM): did not affect | production of IL-2 ([3]; ASA 0.1 mM-3 mM): did not affect | production of IL-13 ([3]; ASA 0.1 mM-3 mM): did not affect

N[C@@H](CCC(=O)N[C@@H](CS)C(=O)NCC(=O)O)C(=O)O [GSH, glutathione]
reproduction of the effects of in vivo NAC treatment ([4]; incubation 2-3 hours, 10 mmol/L): could not reproduce the effects of in vivo NAC treatment

CSC[C@H](NC(=O)CC[C@H](N)C(=O)O)C(=O)NCC(=O)O [GSM, S-Methylglutathione]
reproduction of the effects of in vivo NAC treatment (glutathione repletion, unmasking of TNFR2-mediated effects) ([4]; incubation 2-3 hours): reproduce the effects of in vivo NAC treatment | protection against deleterious effects of TNF-alpha on contraction [4]: protected against the deleterious effects of TNF-alpha on contraction | solubility in water [5]: 2.61 g/liter and 8.1 mM

CC(=O)N[C@@H](CS)C(=O)O [NAC, N-acetyl-L-cysteine]
median tmax ([6]; human, in vivo): 1.0 h | highest non-toxic dose ([6]; in most of the subjects): 800 mg/m^2/day | plasma t1/2 ([6]; monoexponential plasma decay): 2.4 h | GSH content of the left ventricle, % of control level in sham rats [7]: 75% | reproduction of the effects of in vivo NAC treatment (glutathione repletion, unmasking of TNFR2-mediated effects) ([4]; incubation 2-3 hours): could not reproduce the effects of in vivo NAC treatment | protection against deleterious effects of TNF-alpha on contraction [4]: not protected | cytotoxicity [8]: nontoxic | decrease of ovalbumin-specific IgE ([9]; drinking water 0.5 g/liter NAC): ~30% | decrease of ovalbumin-specific IgG1 ([9]; drinking water 0.5 g/liter NAC): ~30% | synthesis of other Ig isotypes ([9]; drinking water 1 g NAC/liter): not significantly affected | IgE and IgG1 antibody responses to ovalbumin ([9]; water containing 0.5-2.0 g/l NAC, 1 μg ovalbumin on aluminum hydroxide i.p.): decreased | primary end points including vital capacity [10]: better | stimulation of growth of peripheral blood T cell cultures [11]: 4-6 fold | increase in T cell proliferation [12]: approximately 4 fold | enhancement of IL-2 production by T cells [13]: approximately 1.5 fold | IFNγ production by T cells ([14]; 0.5-20 mM NAC): not affected | IL-5 production by T cells ([14]; 0.5-20 mM NAC): not affected | IL-4 production by T cells ([14]; maximal at 20 mM NAC): decreased in a dose-dependent manner | IL-2 production by T cells ([14]; up to 5 mM NAC): enhanced | increase in B cell proliferation [15]: at least 5 fold | IgE production by B cells [16]: decreased | IgG4 production by B cells [16]: decreased | GSH level in blood neutrophils, airway neutrophil count and elastase activity [17]: effective in augmenting the GSH level in blood neutrophils and decreasing the airway neutrophil count and elastase activity

O=C([O-])c1ccccc1O.[Na+] [SA, sodium salicylate]
salicylate dose required for inhibition of TNFR1-mediated activation of NF-kappa B [18]: 10 to 20 mM | inhibition of TNFR2-mediated activation of NF-kappa B [19]: but not TNFR2-mediated activation of NF-kappa B

O=C(O)c1ccccc1O [salicylate]
level at which tinnitus may occasionally occur [20]: ≥ 95 µg/mL

IL-4 (R121D/Y124D)
cutaneous wheal response and circulating allergen-specific IgE ([21]; subcutaneous administration for 6 weeks or more): reduced | allergen-induced airways hyper-responsiveness ([21]; subcutaneously or via nebulization): protect allergic cynomolgus monkeys from allergen-induced airways hyper-responsiveness | course of late asthmatic response after experimental allergen challenge ([22]; asthmatic patients): positively affect | adverse events ([22]; subcutaneous injection up to 30 mg for up to 13 weeks or inhalation up to 60 mg for up to 4 weeks): few adverse events

etanercept
side effects of anti-TNF treatment in the patient [23]: increasing iritis symptoms | development of allergen-specific sIgG4 during specific immunotherapy [23]: interferes with the development of allergen-specific sIgG4 | Teff-mediated Treg boost [24]: significantly reduced the Teff-mediated Treg boost

hC3: human complement component C3
half-life of C3 convertase [25]: 1.5 min

infliximab
side effects of anti-TNF treatment in the patient [23]: without major side effects | development of allergen-specific sIgG4 during specific immunotherapy [23]: interferes with the development of allergen-specific sIgG4
